# Measurements: patent publication US10654896B2, “FoxP3-binding peptides and uses thereof” (FUNDACIÓN PARA LA INVESTIGACIÓN MÉDICA APLICADA, priority 2016, dated 2020)
# Where a SMILES comes first, the peptide text is derived from it. [ ]: non-standard residue; d: D form.
# Legend:
# [1] = Human liver microsomal stability; assay type: in vitro ADME; details: human liver microsomes; for remaining at 20 min, 1 μM: read-out: % Remaining after 20 min; for remaining at 1 h, 1 μM: 60 min, read-out: % Remaining after 60 min; for half-life: peptide 1 μM, read-out: t1/2
# [2] = Mouse liver microsomal stability; assay type: in vitro ADME; details: mouse liver microsomes; for remaining at 20 min, 1 μM: read-out: % Remaining after 20 min; for remaining at 1 h, 1 μM: 60 min, read-out: % Remaining after 60 min; for half-life: peptide 1 μM
# [3] = target: T1, FOXP3/FOXP3 homodimerization (Homo sapiens, UniProt Q9BZS1); test: FOXP3/FOXP3 homodimerization inhibition (Alphascreen); assay type: biochemical
# T1 construct: made in house; host or cells: E. coli BL21 (DE3)
# T1 sequence (Q9BZS1 1-431): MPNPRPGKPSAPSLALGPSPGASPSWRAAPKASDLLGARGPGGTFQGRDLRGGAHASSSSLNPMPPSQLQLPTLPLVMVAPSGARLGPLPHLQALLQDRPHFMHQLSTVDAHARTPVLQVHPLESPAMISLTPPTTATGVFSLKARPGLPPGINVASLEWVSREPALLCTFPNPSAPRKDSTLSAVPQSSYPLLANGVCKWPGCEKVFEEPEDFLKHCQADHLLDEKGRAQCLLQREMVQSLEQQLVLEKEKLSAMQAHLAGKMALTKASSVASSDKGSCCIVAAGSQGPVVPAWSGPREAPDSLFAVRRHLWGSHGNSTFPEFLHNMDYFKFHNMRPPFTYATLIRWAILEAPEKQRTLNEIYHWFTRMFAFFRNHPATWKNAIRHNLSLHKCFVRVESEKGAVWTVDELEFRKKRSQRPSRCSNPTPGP
# From the text: Plasmid pET20b FOXP3-His was generated to produce the human FOXP3 tagged with 6 histidines at the C terminus of the protein. Briefly, plasmid pDEST15-FOXP3 (provided by Dr. Casal, Madrid, Spain) was used as template to amplify FOXP3 by PCR using the primers Upper FOXP3 Ndel catatgcccaaccccaggc (SEQ ID NO: 55) and Lower FOXP3 […] (SEQ ID NO: 56). The resulting fragment was subcloned in pET20b at Ndel and NotI sites. pET45b His-Runx1 was obtained by PCR of activated human CD4 T cells obtained from healthy volunteers (after the signature of an informed consent) using the primers Upper Runx1 atgcgtatccccgtagatg (SEQ ID NO: 57) and Lower Runx1 […] (SEQ ID NO: 58) and the fragment was cloned in pcDNA3.1. Then, pET45b and pcDNA3.1-Runx1 were digested with BamHI and NotI and ligated to obtain pET45b-Runx1. Plasmids were used to transform BL21 cells (DE3; Novagen, Schwalbach, Germany) for the expression of the recombinant protein. The transformed BL21 cells were grown in LB medium at 37° C. (1 liter of final culture medium) (with ampicilin 0.1 mg/ml). Once the OD of the culture was between 0.5 and 1.0, IPTG (0.4 mM, final concentration) was added. Bacteria were then cultured overnight in agitation and centrifuged for 10 min at 8000 rpm. Cell pellet was then resuspended in 4 ml Tris-HCl 0.1 M and frozen at −80° C. Cell pellet was then thawed and incubated with lisozyme (25 KU) and a protease inhibitor cocktail for 15 min at 30° C. before cell lysis induced with a French-press. The resultant pool was then centrifuged during 20 min at 11.000 rpm). The recombinant protein was purified from the soluble fraction of French-press cell extracts by affinity chromatography (Histrap, Pharmacia) following manufacturer's instructions and using an FPLC platform (AKTA, Pharmacia). Plasmid pDEST15-FOXP3 encoding the fusion protein GST-FOXP3 (GST fused to the isoform A from human FOXP3 gene), was transformed into BL21 cells for the expression of the recombinant protein. GST-FOXP3 protein was purified from the soluble fraction of cell extracts obtained, as described above, by affinity chromatography (GSTrap; Amersham, Piscataway, N.J.) using a fast protein liquid chromatography platform (AKTA; Amersham) following manufacturer's instructions. The eluted proteins were desalted using Hitrap desalting columns (Pharmacia) and analyzed by SDS-PAGE using Coomassie blue (Bio-Safe Coomassie reagent; Bio-Rad, Hercules, Calif.) and by Western blot.
# It has been described that dimerization of FOXP3 is required for its function as a transcriptional regulator. Moreover, interaction between FOXP3 and the transcription factor Runx1, is crucially required for normal hematopoiesis including thymic T-cell development, but also for Treg suppressor activity (Reviewed in Lozano et al, Front Oncol. 2013, 3:294). Both activities are mediated by the intermediate region of Foxp3, which is the area of interaction between P60 and Foxp3. Thus, we studied the effect of P60 and their mutants on the FOXP3/Runx1 heterodimerization, as well as FOXP3/FOXP3 homodimerization by Alphascreen technology according to the manufacturer's instructions (Perkin Elmer, Benelux). AlphaScreen™ is a bead-based technology that is designed to measure the proximity of donor and acceptor beads conjugated to biomolecules of interest.
# To measure FOXP3/FOXP3 homodimerization, recombinant Foxp3 was expressed with a Histine tag as disclosed in section (1) above, and captured by Nickel chelate Acceptor beads (Cat. AL108 Perkin Elmer) following manufacturer's instructions. The other version of recombinant FOXP3, expressing a GST tag (prepared as disclosed in section (1) above), was captured by Glutathione Donor beads (Perkin Elmer Cat. 6765300), following manufacturer's instructions. When the two proteins interacted together, the Donor and Acceptor beads come into proximity. Excitation of the Donor beads results in emission of light from the Acceptor beads. […]
compound,measurement,setting,value
CSCC[C@H](NC(=O)[C@H](C)NC(=O)[C@H](Cc1ccccc1)NC(=O)[C@H](Cc1ccccc1)NC(=O)[C@@H]1CCCN1C(=O)[C@H](Cc1c[nH]c2ccccc12)NC(=O)[C@H](CCSC)NC(=O)[C@H](CCCCN)NC(=O)[C@H](CCCNC(=N)N)NC(=O)[C@H](Cc1ccccc1)NC(=O)[C@H](CO)NC(=O)[C@H](CCC(N)=O)NC(=O)[C@H](Cc1ccccc1)NC(=O)[C@@H](CC(=O)O)NC(=O)[C@@H](N)CCCNC(=N)N)C(=O)O [compound 3] (H-R[dD]FQSFRKMWPFFAM-OH),"remaining at 20 min, 1 μM",[1],0%
same,"remaining at 1 h, 1 μM",[1],0%
same,half-life,[1],< 2.5 min
same,"remaining at 20 min, 1 μM",[2],0%
same,"remaining at 1 h, 1 μM",[2],0%
same,half-life,[2],< 2.5 min
CSCC[C@H](NC(=O)[C@H](C)NC(=O)[C@H](Cc1ccccc1)NC(=O)[C@H](Cc1ccccc1)NC(=O)[C@@H]1CCCN1C(=O)[C@H](Cc1c[nH]c2ccccc12)NC(=O)[C@H](CCSC)NC(=O)[C@H](CCCCN)NC(=O)[C@H](CCCNC(=N)N)NC(=O)[C@H](Cc1ccccc1)NC(=O)[C@H](CO)NC(=O)[C@H](CCC(N)=O)NC(=O)[C@H](Cc1ccccc1)NC(=O)[C@H](C)NC(=O)[C@H](N)CCCNC(=N)N)C(=O)O [compound 46] (H-[dR]AFQSFRKMWPFFAM-OH; N-terminus and C-terminus assumed),inhibition at 20 µM,[3]; read-out: Dimerization inhibition % inhibition (20 μM),90%
CSCC[C@@H]1NC(=O)[C@H](C)NC(=O)[C@H](Cc2ccccc2)NC(=O)[C@H](Cc2ccccc2)NC(=O)[C@@H]2CCCN2C(=O)[C@H](Cc2c[nH]c3ccccc23)NC(=O)[C@H](CCSC)NC(=O)[C@H](CCCCN)NC(=O)[C@H](CCCNC(=N)N)NC(=O)[C@H](Cc2ccccc2)NC(=O)[C@H](C)NC(=O)[C@H](CCC(N)=O)NC(=O)[C@H](Cc2ccccc2)NC(=O)[C@H](C)NC(=O)[C@H](CCCNC(=N)N)NC1=O [compound 50] (cyclo(RAFQAFRKMWPFFAM)),"remaining at 20 min, 1 μM",[1],6.2%
same,"remaining at 1 h, 1 μM",[1],0%
same,half-life,[1],5.3 min
same,"remaining at 20 min, 1 μM",[2],12%
same,"remaining at 1 h, 1 μM",[2],0%
same,half-life,[2],8 min
H-RDFQSFRKMWPFFAM-OH [compound 1],inhibition at 100 µM,[3]; read-out: Dimerization inhibition % inhibition (100 μM),59.7%
